This note sets out measurements from ChEMBL document CHEMBL1138891, “3-(4-Piperidinyl)indoles and 3-(4-piperidinyl)pyrrolo-[2,3-b]pyridines as ligands for the ORL-1 receptor” (Bioorg Med Chem Lett, 2006).

Data set [1] in a line: Stability in human liver microsome after 60 mins. Type of data set: ADME. The conditions noted are these: liver microsomes, read-out: Stability.
Data set [2] in a line: Half life in human liver microsomes. In kind it is ADME, Microsome.

Broadly, the half-life is the time in which the quantity being followed falls by half. Lower therefore signals fast loss. `c1cc2c3c(cccc3c1)C(N1CCC(c3c[nH]c4ncccc34)CC1)C2` (configuration not stated): the remaining at 1 h in data set [1] amounted to 14%. In data set [2], this compound gave a half-life of 15 min.
